Source: patent publication US9549942B2, “Composition for preventing or treating degenerative brain diseases including compound downregulating expression of BACE1 proteins” (RESEARCH & BUSINESS FOUNDATION SUNGKYUNKWAN UNIVERSITY, priority 2013, dated 2017)

How the values were obtained:
BACE1 proteins [1] = assay: Amount of expression of BACE1 proteins in brain nerve cells (Western blot); format: cell-based, human; details: SH-SY5Y cells, treated 24 hours at 0.625, 1.25, 2.5, 5 and 10 μM, actin control
Experimental: As brain nerve cells, human neuroblastoma cells SH-SY5Y were used. […] The SH-SY5Y cells were plated at 5×10^5 cells/well into a 6-well plate. […] Then, the amount of expression of BACE1 proteins was determined by Western blot. Actin was used throughout as a control.

BACE1 proteins [2] = assay: BACE1 protein expression under oxidative stress (HNE) conditions of brain nerve cells (Western blot); format: cell-based, human; details: SH-SY5Y cells pretreated 24 hours at 1, 5 and 10 μM, then HNE
Experimental: In order to determine an influence of chlorhexidine and thioguanosine of the present disclosure on an amount of BACE1 expression under oxidative stress conditions of brain nerve cells, the following experiment was performed. Brain nerve cells, SH-SY5Y cells, were pretreated with chlorhexidine and thioguanosine at 1 μM, 5 μM, and 10 μM for 24 hours. Then, an oxidative stress substance HNE (4-hydroxynonenal) was applied to the SH-SY5Y cells, and a change in the amount of BACE1 proteins was determined by Western blot. A change in an amount of BACE1 mRNA was determined by real-time PCR.

APP CTFs (C83 and C99) = assay: Generation of APP CTFs (C83 and C99) under oxidative stress conditions of brain nerve cells (Western blot); format: cell-based, human; details: SH-SY5Y cells pretreated 24 hours at 5 and 10 μM, then HNE
Experimental: In order to determine an influence of chlorhexidine and thioguanosine of the present disclosure on APP CTFs under oxidative stress conditions of brain nerve cells, the following experiment was performed. Brain nerve cells, SH-SY5Y cells, were pretreated with chlorhexidine and thioguanosine at 5 μM and 10 μM for 24 hours. Then, an oxidative stress substance HNE (4-hydroxynonenal) was used as the treatment, and the generation of APP CTFs (C83 and C99) was determined by Western blot. Under oxidative stress conditions of brain nerve cells treated in accordance with the present disclosure, changes in the generation of APP CTFs are shown in FIGS. 11 and 12.

BACE1 mRNA = BACE1 mRNA in brain of Alzheimer's dementia animal model (real-time PCR); format: in vivo; details: 3×Tg-AD mouse, 25 mg/kg orally every day for 4 weeks
Experimental: (§1) As an Alzheimer's dementia animal model, 3×Tg-AD mice were used. The 3×Tg-AD mouse is a mouse having overexpressed presenilin, amyloid precursor protein (APP), and Tau genes, which are frequently found in Alzheimer's dementia. The 3×Tg-AD mouse is an animal model that is widely used for research on Alzheimer's dementia (Oddo S. et al, 2003, Neuron, 39, 409-421). 25 mg/kg of chlorhexidine was orally administered every day for 4 weeks; and 0.1 mg/kg and 0.5 mg/kg of thioguanosine were orally administered every day for 8 weeks to 6-month old 3×Tg-AD mice. A Morris water maze test was used to evaluate the effects of chlorhexidine and thioguanosine administration on the mice.
From the 3×Tg-AD mouse to which chlorhexidine was administered in Example 4a brain was extracted. The extracted brain was lysed using a tissue lysis buffer and RNA was extracted using Trizol. The amount of BACE1 expression was determined by Western blot and real-time PCR. FIGS. 18 and 19 show the results.

Aβ40 and Aβ42 = assay: Generation of Aβ40 and Aβ42 in brain, human amyloid β assay kits (ELISA); format: in vivo; details: 3×Tg-AD mouse brain, 25 mg/kg orally every day for 4 weeks
Experimental: as §1
From the 3×Tg-AD mouse to which chlorhexidine was administered in Example 4a brain was extracted. A […] frozen section was prepared from the extracted brain using a microtome. Then, generation of Aβ was measured using immuno staining or a human amyloid 13 (1-40) assay kit (IBL) and a human amyloid β (1-42) assay kit (IBL). FIGS. 20 and 21 show the results.

With `[H]/N=C(\N/C(=N/[H])NCCCCCCNC(=N)NC(=N)Nc1ccc(Cl)cc1)Nc1ccc(Cl)cc1` [chlorhexidine, N′,N′″″-hexane-1,6-diylbis[N-(4-chlorophenyl)(imidodicarbonimidic diamide)]] the “amount of expression of BACE1 proteins” value (BACE1 proteins [1]) was “decreased at 5 μM and 10 μM”, the “increase in the amount of expression of BACE1 proteins due to oxidative stress” value (BACE1 proteins [2]) was “decreased at 5 μM and 10 μM” and the “increase in CTFs due to oxidative stress” value (APP CTFs (C83 and C99)) was “decreased at 5 μM and 10 μM”. For the same molecule, the “amount of BACE1 mRNA in brain” value (BACE1 mRNA) was “lower amount of BACE1 mRNA than that of the control group”, the “generation of Aβ40” value (Aβ40 and Aβ42) was “decreased” and the “generation of Aβ42” value (Aβ40 and Aβ42) was “decreased”.
